Measurements: patent US20230027929A1, “MrgprX2 Antagonists and Uses Thereof” (Dermira, Inc., priority 2019, published 2023)

Target: T1, hMrgpMRGPRX2 (Homo sapiens, UniProt Q96LB1)
T1 construct: expressed in transfected cells
T1 sequence (Q96LB1 1-330): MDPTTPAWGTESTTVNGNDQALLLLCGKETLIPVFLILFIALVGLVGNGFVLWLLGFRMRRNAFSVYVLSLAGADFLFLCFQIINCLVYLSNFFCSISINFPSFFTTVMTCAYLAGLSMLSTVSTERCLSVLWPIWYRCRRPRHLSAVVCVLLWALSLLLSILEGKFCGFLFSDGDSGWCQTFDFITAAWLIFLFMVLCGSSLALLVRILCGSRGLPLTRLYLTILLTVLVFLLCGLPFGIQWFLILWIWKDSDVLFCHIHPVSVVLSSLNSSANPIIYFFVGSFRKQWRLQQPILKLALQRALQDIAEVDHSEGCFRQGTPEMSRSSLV
Experiment: FLIPR intracellular calcium mobilization, antagonist activity in recombinant hMrgpMRGPRX2 expressing cells
Type: cell-based
Details: read-out: Human MrgprX2 Antagonist pIC50 (converted)
Description: Potent and selective hMrgpMRGPRX2 compounds have been generated from compounds identified during a high throughput screening (HTS) campaign and followed up with cycles of structure activity based medicinal chemistry efforts. These compounds were characterized in recombinant hMrgpMRGPRX2 expressing cells for their antagonist activity and the potency was confirmed in the human mast cell line LAD-2, where the target is endogenously expressed. The assays used to determine potencies are functional read-out looking at intracellular calcium mobilization using the FLIPR™ technology. In these FLIPR assays, we test the identified compounds using recombinant cellular systems expressing mouse MrgprB2, mouse MrgprA1, gerbil MrgpMRGPRX2 orthologue, Chinese hamster MrgpMRGPRX2 orthologue and cynomolgus monkey MrgpMRGPRX2 orthologue, respectively for orthologue activity.

IC50 [nM]	SMILES
155	CCN(CC(C)(C)O)C(=O)Nc1ccc(Oc2ccc(F)c(F)c2)cn1 [Compound E112]
575	CN(C[C@H](O)C(F)(F)F)C(=O)Nc1ccc(Oc2ccc(F)c(F)c2)cn1 [Compound E113]
1200	CC(O)CN(CC(F)(F)F)C(=O)Nc1ccc(Oc2ccc(F)c(F)c2)cn1 (stereo not drawn) [Compound E114]
8910	CCN(C[C@@H](O)C(F)(F)F)C(=O)Nc1ccc(Oc2ccc(C#N)cc2)cn1 [Compound E115]
1350	CCN(C[C@@H](O)C(F)(F)F)C(=O)Nc1ccc(Oc2cc(F)cc(C#N)c2)cn1 [Compound E116]
2.04	CCN(C[C@@H](O)C(F)(F)F)C(=O)Nc1ccc(Oc2cc(F)cc(F)c2)cn1 [Compound E117]
50.1	CCN(C[C@@H](O)C(F)(F)F)C(=O)Nc1ccc(Oc2ccc(F)cc2)cn1 [Compound E118]
12.3	CCN(C[C@@H](O)C(F)(F)F)C(=O)Nc1ccc(Oc2cccc(F)c2)cn1 [Compound E119]
3.72	CCN(C[C@@H](O)C(F)(F)F)C(=O)Nc1ccc(Oc2cccc(F)c2F)cn1 [Compound E120]
708	Cc1nc(NC(=O)N(C)C[C@@H](O)C(F)(F)F)ccc1Oc1ccc(F)c(F)c1 [Compound E121]
3.8	CCN(C[C@@H](O)C(F)(F)F)C(=O)Nc1ccc(Oc2ccccc2F)cn1 [Compound E122]
3.39	CCN(C[C@@H](O)C(F)(F)F)C(=O)Nc1ccc(Oc2cc(F)ccc2F)cn1 [Compound E123]
3240	CC1(C)CN(C(=O)Nc2ccc(Oc3ccc(F)c(F)c3)cn2)C1 [Compound E124]
468	CC1(C)CCN1C(=O)Nc1ccc(Oc2ccc(F)c(F)c2)cn1 [Compound E125]
7760	CCN(C[C@@H](O)C(F)(F)F)C(=O)Nc1ccc(Oc2cc(C#N)ccc2F)cn1 [Compound E126]
15.8	CCN(CC(O)C(F)(F)F)C(=O)Nc1ccc(Oc2cccc(F)c2)cn1 (stereo not drawn) [Compound E127]
120	CCN(C[C@@H](O)C(F)(F)F)C(=O)Nc1ccc(Oc2cccc(F)c2C#N)cn1 [Compound E128]
1950	CCN(C[C@@H](O)C(F)(F)F)C(=O)Nc1ccc(Oc2cc(F)ccc2C#N)cn1 [Compound E129]
7080	O=C(Nc1ccc(Oc2cc(F)cc(F)c2)cn1)N1CC[C@@H](CO)C1 [Compound E130]
1000	O=C(NCC(O)C(F)(F)F)Nc1ccc(Oc2cc(F)cc(F)c2)cn1 (stereo not drawn) [Compound E131]
575	O=C(Nc1ccc(Oc2cc(F)cc(F)c2)cn1)N1CCC[C@@H]1CO [Compound E132]
6170	O=C(Nc1ccc(Oc2cc(F)cc(F)c2)cn1)N1CC[C@H](CO)C1 [Compound E133]

IC50 [nM]	SMILES
468	CCN(C[C@@H](O)C(F)(F)F)C(=O)Nc1ccc(Oc2cccc(C#N)c2F)cn1 [Compound E134]
8.13	CCN(C[C@@H](O)C(F)(F)F)C(=O)Nc1ccc(Oc2c(F)cccc2F)cn1 [Compound E135]
158	CCN(C[C@@H](O)C(F)(F)F)C(=O)Nc1ccc(Oc2c(F)cccc2C#N)cn1 [Compound E136]
2.09	CCN(C[C@@H](O)C(F)(F)F)C(=O)Nc1ccc(Oc2ccc(F)cc2F)cn1 [Compound E137]
871	CCN(C[C@@H](O)C(F)(F)F)C(=O)Nc1ccc(OCc2cccc(F)c2)cn1 [Compound E138]
15.1	CN(C[C@@](C)(O)C(F)(F)F)C(=O)Nc1ccc(Oc2ccc(F)c(F)c2)cn1 [Compound E139, 3-[5-(3,4-difluorophenoxy)-2-pyridyl]-1-methyl-1-[(2R)-3,3,3-trifluoro-2-hydroxy-2-methyl-propyl]urea]
1.58	CN(C[C@@](C)(O)C(F)(F)F)C(=O)Nc1ccc(Oc2cc(F)cc(F)c2)cn1 [Compound E140, 3-[5-(3,5-difluorophenoxy)-2-pyridyl]-1-methyl-1-[(2R)-3,3,3-trifluoro-2-hydroxy-2-methyl-propyl]urea]
2.04	CN(C[C@@](C)(O)C(F)(F)F)C(=O)Nc1ccc(Oc2ccc(F)cc2F)cn1 [Compound E141, 3-[5-(2,4-difluorophenoxy)-2-pyridyl]-1-methyl-1-[(2R)-3,3,3-trifluoro-2-hydroxy-2-methyl-propyl]urea]
8710	CCN(C[C@@H](O)C(F)(F)F)C(=O)Nc1ccc(-n2cccn2)cn1 [Compound E142, 1-ethyl-3-(5-pyrazol-1-yl-2-pyridyl)-1-[(2R)-3,3,3-trifluoro-2-hydroxy-propyl]urea]
200	CC(C)C(=O)Nc1cc(Oc2cc(F)cc(F)c2)ccn1 [Compound E143, N-[4-(3,5-difluorophenoxy)-2-pyridyl]-2-methyl-propanamide]
1000	O=C(Nc1cc(Oc2cc(F)cc(F)c2)ccn1)C1CC1 [Compound E144, N-[4-(3,5-difluorophenoxy)-2-pyridyl]cyclopropanecarboxamide]
794	CC(C)C(=O)Nc1cc(Oc2ccccc2)ccn1 [Compound E145, 2-methyl-N-(4-phenoxy-2-pyridyl)propanamide]
3.47	CCN(C[C@@H](O)C(F)(F)F)C(=O)Nc1cc(Oc2ccc(F)c(F)c2)ccn1 [Compound E150, 3-[4-(3,4-difluorophenoxy)-2-pyridyl]-1-ethyl-1-[(2R)-3,3,3-trifluoro-2-hydroxy-propyl]urea]
3.63	CCN(C[C@@H](O)C(F)(F)F)C(=O)Nc1cc(Oc2ccccc2F)ccn1 [Compound E151]
263	CN(C[C@@H](O)C(F)(F)F)C(=O)Nc1cc(Oc2ccc(F)c(F)c2)ccn1 [Compound E152]
245	Cc1cnc(NC(=O)N(C)C[C@@H](O)C(F)(F)F)cc1Oc1ccc(F)c(F)c1 [Compound E153]
1.29	CCN(C[C@@H](O)C(F)(F)F)C(=O)Nc1cc(Oc2cccc(F)c2)ccn1 [Compound E154]
25.1	CCN(C[C@@H](O)C(F)(F)F)C(=O)Nc1cc(Oc2ccc(F)cc2)ccn1 [Compound E155]
1550	CCN(C[C@@H](O)C(F)(F)F)C(=O)Nc1cc(Oc2cccc(C#N)c2)ccn1 [Compound E156]
1580	CCN(C[C@@H](O)C(F)(F)F)C(=O)Nc1cc(Oc2ccc(C#N)cc2)ccn1 [Compound E157]
17.8	CCN(C[C@@H](O)C(F)(F)F)C(=O)Nc1cc(Oc2ccccc2C#N)ccn1 [Compound E158]
14.1	CCN(C[C@@H](O)C(F)(F)F)C(=O)Nc1cc(Oc2ccc(F)cc2F)ccn1 [Compound E159]

SMILES	IC50 [nM]
CC1(C)C(C(=O)Nc2cc(N3CCCC3)ccn2)C1(C)C [Compound E146, 2,2,3,3-tetramethyl-N-(4-pyrrolidin-1-yl-2-pyridyl)cyclopropanecarboxamide]	7940
CC1(C)C(C(=O)Nc2cc(Oc3cncc(F)c3)ccn2)C1(C)C [Compound E147, N-[4-[(5-fluoro-3-pyridyl)oxy]-2-pyridyl]-2,2,3,3-tetramethyl-cyclopropanecarboxamide]	7.94
CC1(C)C(C(=O)Nc2cc(Oc3ccc(F)nc3)ccn2)C1(C)C [Compound E148, N-[4-[(6-fluoro-3-pyridyl)oxy]-2-pyridyl]-2,2,3,3-tetramethyl-cyclopropanecarboxamide]	30.2
CC1(C)C(C(=O)Nc2cc(OCC(F)(F)F)ccn2)C1(C)C [Compound E149, 2,2,3,3-tetramethyl-N-[4-(2,2,2-trifluoroethoxy)-2-pyridyl]cyclopropanecarboxamide]	2000
